The source of these data is patent publication US20240252456A1, “ORAL COMPOSITION, SKIN COSMETIC AND HAIR COSMETIC” (MARUZEN PHARMACEUTICALS CO., LTD., priority 2021, published 2024).

Structures are written as SMILES.

In assay [1] the target is T1, testosterone 5α-reductase (S-9, rat liver homogenate) (Rattus norvegicus, UniProt P24008).
T1 construct: tissue Oriental Yeast Co., Ltd. S-9; host or cells: rat liver homogenate (S-9 fraction)
T1 sequence (P24008 1-259): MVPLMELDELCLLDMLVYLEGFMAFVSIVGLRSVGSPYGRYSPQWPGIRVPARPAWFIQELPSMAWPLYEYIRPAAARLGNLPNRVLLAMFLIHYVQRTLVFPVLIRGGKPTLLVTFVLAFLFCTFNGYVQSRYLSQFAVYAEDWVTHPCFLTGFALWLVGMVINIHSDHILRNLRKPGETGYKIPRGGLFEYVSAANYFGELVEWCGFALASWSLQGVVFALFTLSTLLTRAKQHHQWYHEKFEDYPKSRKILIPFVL
Nature of the assay: Testosterone 5α-reductase inhibitory action test. Format: biochemical. Particulars: rat liver S-9, read-out: Testosterone 5 α-reductase inhibition rate; for inhibition at 2000 µM: 2000 μmol/L; for inhibition at 8000 µM: 8000 μmol/L. As for the experimental part: In a V-bottom test tube with a lid, 20 μL of a 4.2 mg/mL testosterone (available from FUJIFILM Wako Pure Chemical Corporation) solution prepared with propylene glycol and 825 μL of 5 mmol/L Tris-HCl (pH 7.13) buffer solution containing 1 mg/mL NADPH were mixed.
Furthermore, 80 μL of each of test sample solutions (Samples 1 to 3, see Table 24 below for final concentrations) prepared with 80% ethanol and 75 μL of S-9 (available from Oriental Yeast Co., Ltd., rat liver homogenate) were added, mixed, and incubated at 37° C. for 60 minutes. After that, 1 mL of methylene chloride was added to stop the reaction. This was centrifuged (1600×g, 10 minutes), the methylene chloride layer was separated, and the separated methylene chloride layer was subjected to gas chromatography analysis under the following conditions to determine the concentrations of 3α-androstanediol, 5α-dihydrotestosterone (5α-DHT), and testosterone. As a control, the same process was performed using the same amount (80 μL) of the sample solvent in place of the test sample solution, and the control was subjected to gas chromatography analysis.
• Device used: Shimadzu GC-2010 (available from Shimadzu Corporation) • Column: DB-1701 (inner diameter: 0.53 mm, length: 30 m, film thickness: 1.0 μm) (available from J&W Scientific) • Column temperature: 240° C. • Inlet temperature: 300° C. • Detector: FID • Sample injection amount: 1 μL • Split ratio: 1:2 • Carrier gas: Nitrogen gas • Carrier gas flow rate: 12 mL/min
Quantitative determination of the concentrations of 3α-androstanediol, 5α-DHT, and testosterone was performed by the following method.
Standard products of 3α-androstanediol, 5α-DHT, and testosterone were each dissolved in ethanol, and the solutions were subjected to gas chromatography analysis. From the concentrations (μg/mL) and peak areas of these compounds, the correspondence relationship between the peak area and the concentration of each compound was preliminarily obtained. Then, the concentration per peak area of each of 3α-androstanediol, 5α-DHT, and testosterone after the reaction between testosterone and S-9 was obtained based on the following equation (1) using the correspondence relationship which was preliminarily obtained.
Terms in the equation represent the following respective ones. • A: Concentration of 3α-androstanediol, 5α-DHT, or testosterone • B: Peak area of 3α-androstanediol, 5α-DHT, or testosterone • C: Concentration of standard product • D: Peak area of standard product
Using the compound concentration calculated based on the equation (1), the conversion ratio (concentration ratio between the concentration of 3α-androstanediol and 5α-DHT produced by reduction of testosterone due to testosterone 5α-reductase and the initial concentration of testosterone) was calculated based on the following equation (2).
Terms in the equation represent the following respective ones. • E: Concentration of 3α-androstanediol (μg/mL) • F: Concentration of 5α-DHT (μg/mL) • G: Concentration of testosterone (μg/mL)
Using the conversion ratio calculated based on the equation (2), the testosterone 5α-reductase inhibition rate (%) was calculated based on the following equation (3).
Terms in the equation represent the following respective ones. • H: Conversion ratio with test sample addition • I: Conversion ratio without sample addition

Assay [2] deals with TGM1 mRNA. Nature of the assay: Transglutaminase-1 (TGM1) mRNA expression promotive action test. The conditions noted are these: NHEK, 24 hours, A/B×100, corrected with GAPDH. The class given is cell-based, human. As for the experimental part:
Normal human neonatal epidermal keratinocytes (NHEK) were precultured using normal human epidermal keratinocyte growth medium (KGM), and the cells were collected by a trypsin treatment. The collected cells were diluted with KGM to a cell density of 15×10^4 cells/mL, then seeded with 2 mL portions in a 6-well plate (30×10^4 cells/well), and cultured overnight under conditions of 37° C. and 5% CO2. After culturing, the medium was replaced with normal human epidermal keratinocyte basal medium (KBM, the above KGM without addition of growth additives (hEGF, BPE, insulin, antibacterial agents, hydrocortisone)), and culturing was further performed for 24 hours.
After culturing for 24 hours, the medium was removed, and 2 mL of each of test samples (Samples 1 to 3, see Table 15 below for final concentrations) dissolved in KBM was added to each well, and culturing was performed under conditions of 37° C. and 5% CO2 for 24 hours. As a control, culturing was performed in the same manner using KBM to which no sample was added. After culturing, the medium was removed, total RNA was extracted using ISOGEN II (available from NIPPON GENE CO., LTD.), each RNA amount was measured using a spectrophotometer, and the total RNA was prepared so as to be 150 ng/μL.
For TGM1 and GAPDH as an internal standard, the expression levels of mRNA were measured using the above total RNA as a template. Detection was performed through a two-step real-time RT-PCR reaction using a real-time PCR device, Thermal Cycler Dice Real Time System III (available from Takara Bio Inc.), with PrimeScript™ RT Master Mix (Perfect Real Time) (available from Takara Bio Inc.) and TB Green® Fast qPCR Mix (available from Takara Bio Inc.). The primers used were those having the sequences 5′-[…]-3′ and 5′-[…]-3′.
The expression level of TGM1 mRNA was obtained as a value corrected with a value of GAPDH based on total RNA preparations prepared from cells cultured “with test sample addition” and “without sample addition.” From the obtained values, the TGM1 mRNA expression promotion rate (%) was calculated using the following equation.
TGM1 mRNA expression promotion rate (%)=A/B×100
Terms in the equation represent the following respective ones. • A: Corrected value with test sample addition • B: Corrected value without sample addition

`O=C(O)CCc1ccccc1` [Sample 3, 3-phenylpropionic acid]: in assay [1], the inhibition at 2000 µM is 76.4% and the inhibition at 8000 µM is 100%. In addition, the “TGM1 mRNA expression promotion rate” value in assay [2] (25 μmol/L) was 218.5%. Besides, the “TGM1 mRNA expression promotion rate” value in assay [2] (100 μmol/L) was found to be 174.9%.
With `O=C(O)CCc1ccc(O)cc1` [Sample 2, 3-(4-Hydroxyphenyl)propionic acid], in assay [1], the inhibition at 2000 µM came to 71% and the inhibition at 8000 µM is 100%. Moreover, the “TGM1 mRNA expression promotion rate” value in assay [2] (100 μmol/L) is reported as 160.8%.
As for `O=C(O)CCc1ccc(O)c(O)c1` [Sample 1, 3,4-Dihydroxyhydrocinnamic acid], the inhibition at 2000 µM in assay [1] is 34.3%. In assay [1], the inhibition at 8000 µM was found to be 100%. The “TGM1 mRNA expression promotion rate” value stood at 214.6% in assay [2] (6.25 μmol/L), 528.6% in assay [2] (25 μmol/L) and 1617.1% in assay [2] (100 μmol/L).
